Reference: patent publication US11058713B2, “Treatment and diagnosis of ocular surface disorders” (Advaite LLC., priority 2017, dated 2021)
“Also recorded” adds a separate entry of the source.

What was measured:
[1] = tested on: stimulated neutrophils; test: Stimulated neutrophils: inflammatory products (green staining strands), photographs; format: cell-based
[2] = tested on: neutrophil inflammatory products; test: Kinetic assay of neutrophil inflammatory products, stimulation by 1 nM PMA; format: cell-based; conditions: FIGS. 9A and 9B
[3] = tested on: mucocellular aggregates from a patient with severe tear deficient DED; test: Ex vivo dissolution of mucocellular aggregates (Hematoxylin-Eosin and Sytox Green); parameters: species or system human; conditions: sub-anticoagulant heparin 100 IU/ml; substantially intact with culture media (RPMI) only
Procedure: The extracellular structures (green strands) were dissolved when treated with sub-anticoagulant heparin (100 IU/ml), but remained substantially intact when treated with only the culture media (RPMI).

[4] = tested on: murine corneas; test: Murine model of neutrophil product (NETs) induced corneal disease; format: in vivo
Procedure: Neutrophil products (NETs) when applied to corneal surface induced epithelial disease and fluorescein staining. […] Protein levels of inflammatory cytokines were also determined (IL-lb and IP-10) using a Magpix platform.
Whether reducing OSM levels in naive NETs using heparin or OSM NAb abrogates NETs induced epitheliopathy in murine corneas was investigated. Naive NETs, heparinized NETs and OSM NAb incubated NETs was applied to naïve murine corneas for five consecutive days. […] At Day 5, corneas were excised and abundance of inflammatory cytokines (IL-1β, IL-6 and IP-10) were determined in lysates. […] FIG. 16.

[5] = tested on: immortalized meibomian gland epithelial cells; test: Meibomian gland cell differentiation, lipid accumulation by LipidTOX staining; format: cell-based, human
Excerpt: Meibomian gland disease is a conspicuous feature of oGVHD. As compared to normal meibomian gland, patients with oGVHD have extensive atrophy or truncation of meibomian glands. […] To determine the effect of NETs on meibomian glands, immortalized meibomian gland epithelial cells were cultivated and differentiated. Lipid accumulation was detected using LipidTOX staining. […] The reduction in lipid accumulation with NETs was abrogated with addition of NGAL NAb (21.21±0.83 A.U). […] The reduction of lipid accumulation with rNGAL was abrogated with addition of NGAL NAb (17.82±0.43 A.U) and heparin (15.66±1.72 A.U).

[6] = tested on: human MG cells; test: Meibomian gland cell proliferation; format: cell-based; conditions: KSFM medium with rNGAL; reduction with rNGAL on addition of NGAL NAb or heparin
Excerpt: Next, the effect of NGAL on proliferation of human MG cells was investigated. […] FIG. 20. […] The reduction of MG cell proliferation with rNGAL was abrogated with addition of NGAL NAb and heparin.

[7] = tested on: oncostatin M (OSM); test: Recombinant OSM protein levels after incubation with heparin or NAb; format: binding; conditions: FIG. 15
Procedure: (§1) The molecular component of Neutrophil Extracellular Traps (NETs) that may cause epitheliopathy was investigated. […] OSM was present in abundance in mucocellular aggregates (MCA) collected from definite oGVHD patients. OSM is a heparin binding protein, therefore incubation with heparin or Neutralizing antibody (NAb) reduced recombinant OSM protein levels (FIG. 15).

[8] = tested on: human corneal epithelial cells; test: Scratch wound healing of confluent corneal epithelial cells; format: cell-based; conditions: anticoagulant dose heparin 1000 and 10,000 IU/ml; versus RPMI control and 100 IU/ml
Procedure: In this experiment human corneal epithelial cells were grown to confluence and scratch wounds were made.

[9] = tested on: mouse corneas; test: Recombinant OSM protein induced corneal epithelial disease; format: in vivo; conditions: for corneal fluorescein staining at Day 5: application of OSM, OSM incubated with heparin or OSM incubated with OSM NAb
Excerpt: Excessive amounts of OSM can cause corneal epithelial disease similar to that seen in DED patients. […] OSM inhibitors used can be selected from neutralizing antibodies, neutralizing peptides and small molecules and other gene based approaches. These OSM inhibitors can be used independently as therapeutic proteins/peptides/small molecules for DED treatment.
In addition, whether OSM recombinant protein can produce epitheliopathy similar to NETs and whether reducing OSM levels using heparin or OSM NAb abrogates that effect was also investigated. […] These experiments indicate that NETs cause corneal epitheliopathy possibly due to presence of OSM and epitheliopathy can be prevented with heparin. To test this theory, a patient with oGVHD who had corneal and conjunctival epitheliopathy was treated with heparin eye drop (100 IU/mL) three times a day for four weeks.

[10] = tested on: human corneal epithelial cells; test: Cytotoxicity assay (LDH); format: cell-based
[11] = molecular target: T1, oncostatin M (OSM) (Mus musculus, UniProt P53347); test: OSM levels in murine NETs; format: binding; conditions: 614.67±95.73 pg/mL without heparin
T1 construct: In murine NETs, OSM is present in great abundance; endogenous in cells; host or cells: murine neutrophil extracellular traps (NETs)
T1 sequence (P53347 23-206): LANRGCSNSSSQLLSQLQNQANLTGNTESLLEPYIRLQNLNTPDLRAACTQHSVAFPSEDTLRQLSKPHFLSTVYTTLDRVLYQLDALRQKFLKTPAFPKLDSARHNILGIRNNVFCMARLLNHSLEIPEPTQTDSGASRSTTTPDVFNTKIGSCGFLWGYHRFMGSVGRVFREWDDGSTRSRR
Procedure: as §1

[12] = Heparin addition to NETs, protein level, Magpix platform
[13] = DFM medium with rNGAL, rNGAL plus NGAL NAb or rNGAL plus heparin, DFM alone 24.92±1.21

## Enoxaparin
[1]; Enoxaparin 10, 20, 40 and 80 μg/mL, FIG. 6
  neutrophil inflammatory products (green staining strands): dose dependent fashion
[1]; Enoxaparin at 80 μg/mL
  inflammatory strands of neutrophils: almost completely
[2]
  amount of neutrophil inflammatory products produced with stimulation by 1 nM PMA: dose dependent reduction; also recorded: dose dependent manner

## heparin
[3]
  extracellular structures (green strands) of mucocellular aggregates: dissolved
[4]; Heparin (100 IU/ml) added to NETs applied to corneal surface
  epithelial disease and fluorescein staining: significantly reduced
[4]; [12]
  corneal abundance of IL-lb: significantly reduced
  corneal abundance of IP-10: significantly reduced
[4]; naive NETs, heparinized NETs or OSM NAb incubated NETs applied to naïve murine corneas for five consecutive days
  corneal fluorescein staining at Day 5: 0.80±0.49
[5]; DFM medium with NETs, heparinized NETs or NETs plus NGAL NAb, DFM alone 24.92±1.21, KSFM 6.93±0.57
  fluorescence intensity of LipidTox Green neutral lipid stain (accumulation of lipids): 33.98±2.18 A.U
[5]; [13]
  fluorescence intensity of LipidTox Green neutral lipid stain (accumulation of lipids): 15.66±1.72 A.U
[6]
  MG cell proliferation: abrogated
[7]
  recombinant OSM protein levels: reduced
[8]
  Epithelial cell healing (scratch wounds): significantly delayed
[9]
  corneal fluorescein staining at Day 5: 1.20±0.20
[9]; heparin 100 IU/ml or neutralizing antibody added to recombinant OSM, FIG. 13
  corneal fluorescein staining induced by OSM: significantly reduced
[1]; heparin 0.01, 0.1, 1, 10 and 100 IU/mL, FIG. 5
  neutrophil inflammatory products (green staining strands): dose dependent fashion
[1]; heparin at 100 IU/ml
  amount of inflammatory strands of neutrophils: almost completely
[10]; anticoagulant dose heparin 1000 and 10,000 IU/ml, versus RPMI control and 100 IU/ml
  LDH: significantly higher
[10]; anticoagulant dose of heparin (1000 and 10,000 IU/ml)
  human corneal epithelial cell cytotoxicity: causes human corneal epithelial cell cytotoxicity
[10]; sub-anticoagulant dose of heparin (100 IU/ml)
  human corneal epithelial cell cytotoxicity: does not cause cytotoxicity
[2]
  amount of neutrophil inflammatory products produced with stimulation by 1 nM PMA: dose dependent reduction; also recorded: dose dependent manner
[11]
  OSM levels in heparinized NETs: 19.95 ± 0.00 pg/mL

B1: rNGAL: recombinant NGAL (neutrophil gelatinase-associated lipocalin) (protein, UniProt P80188 21-198, looked up)
Neutrophil …: QDSTSDLIPAPPLSKVPLQQNFQDNQFQGKWYVVGLAGNAILREDKDPQKMYATIYELKEDKSYNVTSVLFRKKKCDYWIRTFVPGCQPGEFTLGNIKSYPGLTSYLVRVVSTNYNQHAMVFFKKVSQNREYFKITLYGRTKELTSELKENFIRFSKSLGLPENHIVFPVPIDQCIDG
[5]; [13]
  fluorescence intensity of LipidTox Green neutral lipid stain (accumulation of lipids): 10.88±0.35 A.U
[6]
  MG cell proliferation: significantly decreased

B2: OSM: OSM recombinant protein applied to mouse corneas (protein, UniProt P53347 25-206, looked up)
Oncostatin-M: NRGCSNSSSQLLSQLQNQANLTGNTESLLEPYIRLQNLNTPDLRAACTQHSVAFPSEDTLRQLSKPHFLSTVYTTLDRVLYQLDALRQKFLKTPAFPKLDSARHNILGIRNNVFCMARLLNHSLEIPEPTQTDSGASRSTTTPDVFNTKIGSCGFLWGYHRFMGSVGRVFREWDDGSTRSRR
[9]
  corneal fluorescein staining at Day 5: 8.75±0.48
